# Laboratory results from US4036979A, “Compositions containing 4,5,6,7-tetrahydrobenz[b]thien-4-yl-ureas or derivatives and methods of enhancing growth rate” (American Cyanamid Company, priority 1976, dated 1977).
# Assay: Mouse Growth Regulant Tests (12-day weight gain over controls, compound in diet)
# Format: in vivo, CFI female mice
# Conditions: Mus musculus, feed or water, 288 h, Table IX; 400 ppm in diet
# Experimental: CFI female mice from Carworth Farms are received when they are six weeks old. They are housed ten to a cage in air-conditioned rooms (72° F. to 76° F.) with automatically controlled lights, 14 hours on and 10 hours off. The basal diet used in these studies is Purina Laboratory Chow (see description below), which is supplied ad libitum. Water is also allowed ad libitum.
# Thirteen days after arrival, the mice are weighed in groups of ten and assigned at random to the different treatments. Twelve days later the mice are weighed again and the experiment terminated. At least three cages (30 mice) of untreated controls are included in each test. Test data are provided in Tables VI, VII, VIII, and IX below wherein data are reported as percent weight gain over controls. Unless otherwise indicated in these tables, all compounds tested were dl-racemic mixtures. The following is a description of the diet to which the growth promoting compounds were added.
row,SMILES,change in vivo at 400 ppm [%]
1,"COCNC(=O)NC1CCCCc2sccc21 (stereo not shown) [Table IX: O,H,H,CH2OCH3, 1-(methoxymethyl)-3-(5,6,7,8-tetrahydro-4H-cyclohepta[b]thien-4-yl)urea]",10
2,"NC(=O)NC1CCCCc2sccc21 (stereo not shown) [Table IX: O,H,H,H, 5,6,7,8-tetrahydro-4H-cyclohepta[b]thien-4-ylurea]",54

# Same assay, conditions: Mus musculus, feed or water, 288 h, Table VI; 200 ppm in diet
row,SMILES,change in vivo at 200 ppm [%]
1,O=C(NC(=O)C(Cl)(Cl)Cl)NC1CCCc2sccc21 (stereo not shown),37.4

# Same assay, conditions: Mus musculus, feed or water, 288 h, Table VI; 400 ppm in diet
row,SMILES,change in vivo at 400 ppm [%]
1,O=C(NCc1ccccn1)NC1CCCc2sccc21 (stereo not shown),41
2,"O=C(NC1CCCc2sccc21)N(O)Cc1ccccc1 (stereo not shown) [Table VI: O,H,H,H,CH2C6H5,OH]",12
3,"N#CNC(=O)NC1CCCc2sccc21 (stereo not shown) [Table VI: O,H,H,H,H,CN]",1
4,O=C(NCc1ccc(Cl)cc1)NC1CCCc2sccc21 (stereo not shown),1
5,"O=C(NC1CCCc2sccc21)N1CCOCC1 (stereo not shown) [Table VI: O,H,H,H,CH2CH2OCH2CH2, N-(4,5,6,7-tetrahydrobenzo[b]thien-4-yl)-4-morpholinecarboxamide]",9.9
6,"CNC(=S)NC1CCCc2sc(C)cc21 (stereo not shown) [Table VI: S,CH3,H,H,CH3,H]",88.5
7,O=C(Nc1ccc(Cl)cc1Cl)NC1CCCc2sccc21 (stereo not shown),18
8,COc1ccc(CNC(=O)NC2CCCc3sccc32)cc1 (stereo not shown),16
9,COc1cccc(NC(=O)NC2CCCc3sccc32)c1 (stereo not shown),25
10,"CN(O)C(=O)NC1CCCc2sccc21 (stereo not shown) [Table VI: O,H,H,H,CH3,OH, 1-hydroxy-1-methyl-3-(4,5,6,7-tetrahydrobenzo[b]thien-4-yl)urea]",49.6
11,O=C(NC1CCCc2sccc21)N1CCCc2ccccc21 (stereo not shown),4
12,"C=CCN(CC=C)C(=O)NC1CCCc2sccc21 (stereo not shown) [Table VI: O,H,H,H,CH2CHCH2,CH2CHCH2]",4
13,"O=C(NO)NC1CCCc2sccc21 (stereo not shown) [Table VI: O,H,H,H,H,OH, 1-hydroxy-3-(4,5,6,7-tetrahydrobenzo[b]thien-4-yl)urea]",103
14,"C=CCONC(=O)NC1CCCc2sccc21 (stereo not shown) [Table VI: O,H,H,H,H,OCH2CHCH2]",5
15,"CCCCN(CCCC)C(=O)NC1CCCc2sccc21 (stereo not shown) [Table VI: O,H,H,H,n-butyl,n-butyl, 1,1-dibutyl-3-(4,5,6,7-tetrahydrobenzo[b]thien-4-yl)urea]",6
16,O=C(NCc1cccs1)NC1CCCc2sccc21 (stereo not shown),39

# Same assay, conditions: Mus musculus, feed or water, 288 h, Table VII; 200 ppm in diet
row,SMILES,change in vivo at 200 ppm [%]
1,"CON(C)C(=O)NC1CCC(=O)c2sccc21 (stereo not shown) [Table VII: O,CH3,OCH3, 1-methoxy-1-methyl-3-(4,5,6,7-tetrahydro-7-oxobenzo[b]thien-4-yl)urea]",62.6
2,"C#CCNC(=O)NC1CCC(=O)c2sccc21 (stereo not shown) [Table VII: O,H,CH2CCH, 1-(2-propynyl)-3-(4,5,6,7-tetrahydro-7-oxobenzo[b]thien-4-yl)urea]",40.6

# Same assay, conditions: Mus musculus, feed or water, 288 h, Table VII; 400 ppm in diet
row,SMILES,change in vivo at 400 ppm [%]
1,"CNC(=S)NC1CCC(=O)c2sccc21 (stereo not shown) [Table VII: S,H,CH3]",62.5
2,"CCNC(=O)NC1CCC(=O)c2sccc21 (stereo not shown) [Table VII: O,H,C2H5, 1-ethyl-3-(4,5,6,7-tetrahydro-7-oxobenzo[b]thien-4-yl)urea]",79.3
3,"C=CCNC(=O)NC1CCC(=O)c2sccc21 (stereo not shown) [Table VII: O,H,CH2CHCH2]",58.7

# Same assay, conditions: Mus musculus, feed or water, 288 h, Table VIII; 200 ppm in diet
row,SMILES,change in vivo at 200 ppm [%]
1,"NC(=O)NC1CCC(O)c2sccc21 (mixture of isomers) [Table VIII: O,H,H (mixture of dextrorotatory diastereomers, 62% isomer B)]",13.5
2,"CC(C)NC(=O)NC1CCC(O)c2sccc21 (stereo not shown) [Table VIII: O,H,iso-C3H7]",43.9

# Same assay, conditions: Mus musculus, feed or water, 288 h, Table VIII; 400 ppm in diet
row,SMILES,change in vivo at 400 ppm [%]
1,"C=CCNC(=O)NC1CCC(O)c2sccc21 (stereo not shown) [Table VIII: O,H,CH2CHCH2, 1-allyl-3-(7-hydroxy-4,5,6,7-tetrahydrobenzo[b]thien-4-yl)-urea]",29.1

# Same assay, conditions: Table VIII; 25 ppm in diet
row,SMILES,& Weight Gain Over Controls [%]
1,"NC(=O)NC1CCC(O)c2sccc21 (single isomer, unassigned; (-)) [Table VIII: O,H,H (levorotatory diastereomer, 91.5% isomer B)]",74.5
